According to ChEMBL document CHEMBL1201862, “PubChem BioAssay data set” (2004):
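1) Cells in 96-well plates. 2) Compound, 48 h, 5 concentrations. 3) Linear interpolation between surrounding doses. 4) Unreached endpoint = highest concentration. The concentration for 50% growth inhibition is given as GI50.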 Active and inactive are the calls of the source. Cut-off read from the data, not from the text of the source: active = GI50 up to about 1.1 µM and inactive = higher.

Key:
Assay in all cases: NCI anticancer screen, dose series, 48 h
NCI-H23 = tested on: NCI-H23
Hs-578T = tested on: Hs-578T
NCI-H460 = tested on: NCI-H460
Malme-3M = tested on: Malme-3M
ACHN = tested on: ACHN
HCT-15 = tested on: HCT-15
KM12 = tested on: KM12
OVCAR-8 = tested on: OVCAR-8
CAKI-1 = tested on: CAKI-1
MDA-MB-435 = tested on: MDA-MB-435
A498 = tested on: A498
M14 = tested on: M14
PC-3 = tested on: PC-3
SK-OV-3 = tested on: SK-OV-3
OVCAR-5 = tested on: OVCAR-5
HOP-92 = tested on: HOP-92
SNB-19 = tested on: SNB-19
786-0 = tested on: 786-0
SF-268 = tested on: SF-268
SK-MEL-2 = tested on: SK-MEL-2
LOX IMVI = tested on: LOX IMVI
SNB-75 = tested on: SNB-75
COLO 205 = tested on: COLO 205
HT-29 = tested on: HT-29
SW-620 = tested on: SW-620
MDA-N = tested on: MDA-N
RXF 393 = tested on: RXF 393
HCC 2998 = tested on: HCC 2998
HL-60 = tested on: HL-60
HCT-116 = tested on: HCT-116
SK-MEL-28 = tested on: SK-MEL-28
NCI/ADR-RES = tested on: NCI/ADR-RES
RPMI-8226 = tested on: RPMI-8226
SK-MEL-5 = tested on: SK-MEL-5
SR = tested on: SR
OVCAR-4 = tested on: OVCAR-4
MCF7 = tested on: MCF7
UACC-62 = tested on: UACC-62
HOP-62 = tested on: HOP-62
CCRF-CEM = tested on: CCRF-CEM
NCI-H226 = tested on: NCI-H226
IGROV-1 = tested on: IGROV-1
U-251 = tested on: U-251
A549 = tested on: A549
BT-549 = tested on: BT-549
T47D = tested on: T47D
OVCAR-3 = tested on: OVCAR-3
DU-145 = tested on: DU-145
SN12C = tested on: SN12C
MDA-MB-231 = tested on: MDA-MB-231
K562 = tested on: K562
MOLT-4 = tested on: MOLT-4
UACC-257 = tested on: UACC-257
EKVX = tested on: EKVX
UO-31 = tested on: UO-31
SF-295 = tested on: SF-295
SF-539 = tested on: SF-539
TK-10 = tested on: TK-10
NCI-H522 = tested on: NCI-H522

Measured: GI50

C[C@]12CC(c3ccccc3O1)C(C#N)C(=O)N2 (stereo partly specified)
> 100 µM: HCT-15
inactive: NCI-H23 > 100 µM | Hs-578T > 100 µM | NCI-H460 > 100 µM | Malme-3M > 100 µM | ACHN > 100 µM | KM12 > 100 µM | OVCAR-8 > 100 µM | CAKI-1 > 100 µM | MDA-MB-435 > 100 µM | A498 > 100 µM | M14 > 100 µM | PC-3 > 100 µM | SK-OV-3 > 100 µM | OVCAR-5 > 100 µM | HOP-92 > 100 µM | SNB-19 > 100 µM | 786-0 > 100 µM | SF-268 > 100 µM | SK-MEL-2 > 100 µM | LOX IMVI > 100 µM | SNB-75 > 100 µM | COLO 205 > 100 µM | HT-29 > 100 µM | SW-620 > 100 µM | MDA-N > 100 µM | RXF 393 > 100 µM | HCC 2998 > 100 µM | HL-60 > 100 µM | HCT-116 > 100 µM | SK-MEL-28 > 100 µM | NCI/ADR-RES > 100 µM | RPMI-8226 > 100 µM | SK-MEL-5 > 100 µM | SR > 100 µM | OVCAR-4 > 100 µM | MCF7 > 100 µM | UACC-62 > 100 µM | HOP-62 > 100 µM | CCRF-CEM > 100 µM | NCI-H226 > 100 µM | IGROV-1 > 100 µM | U-251 > 100 µM | A549 > 100 µM | BT-549 > 100 µM | T47D > 100 µM | OVCAR-3 > 100 µM | DU-145 > 100 µM | SN12C > 100 µM | MDA-MB-231 > 100 µM | K562 > 100 µM | MOLT-4 > 100 µM | UACC-257 > 100 µM | EKVX > 100 µM

O=c1c(Cc2c(O)oc3cc(O)ccc3c2=O)c(O)oc2cc(O)ccc12
> 100 µM: HCT-15
inactive: NCI-H23 > 100 µM | Hs-578T 94.4 µM | NCI-H460 > 100 µM | Malme-3M > 100 µM | OVCAR-8 > 100 µM | CAKI-1 > 100 µM | MDA-MB-435 > 100 µM | A498 > 100 µM | M14 > 100 µM | PC-3 > 100 µM | UO-31 31.9 µM | SK-OV-3 > 100 µM | OVCAR-5 > 100 µM | HOP-92 > 100 µM | SF-295 > 100 µM | SNB-19 > 100 µM | SF-268 > 100 µM | SK-MEL-2 > 100 µM | LOX IMVI > 100 µM | SNB-75 53.5 µM | COLO 205 > 100 µM | HT-29 > 100 µM | SW-620 > 100 µM | MDA-N > 100 µM | RXF 393 > 100 µM | HCC 2998 > 100 µM | SF-539 > 100 µM | HL-60 > 100 µM | HCT-116 > 100 µM | SK-MEL-28 > 100 µM | NCI/ADR-RES > 100 µM | SK-MEL-5 41.8 µM | SR > 100 µM | OVCAR-4 56.8 µM | MCF7 > 100 µM | UACC-62 > 100 µM | HOP-62 > 100 µM | CCRF-CEM 56 µM | NCI-H226 > 100 µM | IGROV-1 > 100 µM | U-251 > 100 µM | A549 > 100 µM | BT-549 > 100 µM | T47D > 100 µM | OVCAR-3 > 100 µM | TK-10 > 100 µM | DU-145 > 100 µM | SN12C > 100 µM | MDA-MB-231 > 100 µM | K562 64.9 µM | MOLT-4 > 100 µM | UACC-257 > 100 µM | EKVX > 100 µM

NS(=O)(=O)c1ccc(/N=N/c2cnc(O)c(O)c2)cc1
> 100 µM: HCT-15
inactive: NCI-H23 64 µM | Hs-578T 66.1 µM | NCI-H460 > 100 µM | Malme-3M 29.8 µM | ACHN > 100 µM | KM12 96.8 µM | OVCAR-8 76.2 µM | CAKI-1 > 100 µM | MDA-MB-435 > 100 µM | A498 > 100 µM | M14 81.3 µM | PC-3 > 100 µM | UO-31 > 100 µM | SK-OV-3 > 100 µM | OVCAR-5 > 100 µM | HOP-92 81.7 µM | SF-295 > 100 µM | SNB-19 52.4 µM | 786-0 > 100 µM | SF-268 43.2 µM | SK-MEL-2 52 µM | LOX IMVI 91.2 µM | SNB-75 47.4 µM | COLO 205 95.3 µM | HT-29 > 100 µM | SW-620 > 100 µM | MDA-N > 100 µM | RXF 393 95.3 µM | SF-539 67.5 µM | HL-60 > 100 µM | HCT-116 > 100 µM | SK-MEL-28 > 100 µM | NCI/ADR-RES 94.2 µM | RPMI-8226 > 100 µM | SK-MEL-5 78.2 µM | SR 29.6 µM | OVCAR-4 50 µM | MCF7 44.2 µM | UACC-62 43.1 µM | HOP-62 > 100 µM | NCI-H522 14.1 µM | CCRF-CEM 19.6 µM | NCI-H226 > 100 µM | IGROV-1 > 100 µM | U-251 20.8 µM | A549 > 100 µM | BT-549 42.5 µM | T47D 85.7 µM | OVCAR-3 28.8 µM | TK-10 > 100 µM | DU-145 78.2 µM | SN12C 51.9 µM | MDA-MB-231 > 100 µM | K562 > 100 µM | MOLT-4 54 µM | UACC-257 23 µM | EKVX > 100 µM
